Entries after “also recorded” stand apart in the source; their conditions may differ. Like-named read-outs stand apart in the source and are kept apart here.
Experiments:
[1] = biological target: T1, Rac1 activated by DH/PH domain of Guanine nucleotide Exchange Factor Tiam1 (Rac1/Tiam1) (Homo sapiens, UniProt P63000); test: Nucleotide binding assay: BODIPY-GTP binding to Rac1 activated by Tiam1 DH/PH; format: biochemical; details: for inhibition at 50 µM: final concentration of 50 μM, Rac1/Tiam1, read-out: Rac1 % inhibition of BODIPY-GTP binding
T1 construct: made in house; host or cells: E. coli BL21 Codon+RIL
Procedure: (§1) Fluorescence of GTP analog BODIPY-GTP increases when it binds to small G proteins. This property was used to assess ability of compounds to inhibit nucleotide binding to Rac1, Rac1b and Cdc42. 2 μM GST-Rac1 and 6 μg His6-Tiam1-DH/PH were diluted in a buffer containing 20 mM Tris, 50 mM NaCl, and 1 mM MgCl2. This mixture was loaded in a 96-well plate. Fluorescence recording were started (λEx: 485 nm; λEm: 538 nm) using a spectrofluorimeter (Fluoroskan; Thermolab Systems). Assay was initiated by the addition of 2 μM BODIPY-GTP with or without various doses of test compound. Fluorescence values were recorded, and data were processed as follows: background fluorescence (unbound BODIPY-GTP) was retrieved from fluorescence values.
(§2) This assay allows determining whether compounds can inhibit the binding of a fluorescent nucleotide to recombinant small G proteins of interest. The effect of various alkaloid compounds on binding of BODIPY-GTP to Rac1 activated by DH/PH domain of Guanine nucleotide Exchange Factor Tiam1 (Rac1/Tiam1), Rac1b and Cdc42 is described below.

[2] = biological target: T2, Cdc42 (Homo sapiens, UniProt P60953); test: Nucleotide binding assay: BODIPY-GTP binding to Cdc42; format: biochemical; details: final concentration of 50 μM; read-out: Cdc42 % inhibition of BODIPY-GTP binding
T2 construct: GST (N); made in house; host or cells: E. coli BL21 Codon+RIL
Procedure: as §1, §2

[3] = biological target: T3, Rac1b (Homo sapiens, UniProt P63000); test: Nucleotide binding assay: BODIPY-GTP binding to Rac1b; format: biochemical; details: for inhibition at 50 µM: final concentration of 50 μM, read-out: Rac1b % inhibition of BODIPY-GTP binding
T3 construct: GST (N); made in house; host or cells: E. coli BL21 Codon+RIL
Procedure: as §1, §2

[4] = test system: NIH3T3 and PC-3 cells; details: cited from earlier work
[5] = test system: HCT116 cell line; test: Soft agar assay (anchorage-independent colony formation); format: cell-based; details: HCT116, 7 days
Description: Colony formation in soft agar is the most widely used assay to evaluate anchorage-independent growth potential and represents one of the best in vitro assays that correlates strongly with in vivo tumorigenic cell growth potential. Normal cells require adherence and spreading onto a solid substratum in order to remain viable and proliferate. In contrast, cancer cell line HCT116 (ATCC clone number CCL-247) lost this requirement and therefore can form proliferating colonies of cells when suspended in a semisolid agar medium. The assay was performed in 24-well plates, using duplicates wells for each compound concentration. Briefly, a 0.5% Bacto™ Agar (BD Biosciences) bottom layer (prepared in HCT116 complete growth medium supplemented or not with the tested compound) was poured first and allowed to harden (0.3 ml per well). HCT116 were trypsinized to generate a uniform single cell suspension. Five×10^3 cells per well were resuspended in 0.3% agar supplemented with complete growth medium, with or without several compound concentrations to form the top layer (0.3 ml per well). HCT116 were allowed to grow for 7 days in these conditions and then analysed for colonies formation. Analysis was performed from pictures taken under a microscope that are representative from 2 different fields of the well. For each field, 2 different focal plans were taken and were merged using ImageJ software. The number of colonies were scored and colonies' size were measured. IC50 were determined for the number and size of colonies using GraphPad Prism (GraphPad) software. Data are mean values of 2 to 3 independent experiments.

[6] = biological target: RhoA (Homo sapiens, UniProt P61586); details: cited from earlier work
[7] = test system: protein kinase C (PKC); details: cited from earlier work
[8] = biological target: T4, HEK293 cells overexpressing human Rac1b (Homo sapiens, UniProt P63000); test: Rac1b activation assay (G-LISA); format: cell-based; details: HEK293; 50 μM, 5 minutes, GTP loading of Rac1b; read-out: G-LISA % inhibition @ 50 μM
T4 construct: expressed in transfected cells; host or cells: HEK293
Procedure: Rac1b activation assay: HEK293 cells overexpressing human Rac1b were plated in 100 mm diameter dishes and grown for 5 days in MEM medium supplemented with 10% FBS, L-Glutamine and antibiotics. Cells were then treated with 50 μM of compounds or the solvent for 5 minutes, and the GTP loading of Rac1b was measured using a Rac Activation Assay Kit (Cytoskeleton) according to manufacturer's recommendations. Briefly, this assay uses a 96-well plate coated with RBD domain of Rho-family effector proteins. […] The signal is then developed with OPD reagent.

T2 sequence (P60953 whole entry, species assumed): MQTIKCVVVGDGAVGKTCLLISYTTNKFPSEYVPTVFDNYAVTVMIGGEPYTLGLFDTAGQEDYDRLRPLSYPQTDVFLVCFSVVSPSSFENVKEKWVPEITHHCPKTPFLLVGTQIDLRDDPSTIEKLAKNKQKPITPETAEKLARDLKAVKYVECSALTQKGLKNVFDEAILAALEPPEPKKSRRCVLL
RhoA, sequence (P61586 whole entry, species assumed): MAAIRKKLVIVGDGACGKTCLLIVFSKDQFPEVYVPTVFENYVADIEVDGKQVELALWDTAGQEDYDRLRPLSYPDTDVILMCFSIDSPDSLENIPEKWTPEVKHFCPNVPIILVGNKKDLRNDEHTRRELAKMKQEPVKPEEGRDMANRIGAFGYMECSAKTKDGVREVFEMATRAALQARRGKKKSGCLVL

Row | melting point [°C] | Structure (SMILES) | inhibition at 50 µM [1] [%] | inhibition at 50 µM [2] [%] | inhibition at 50 µM [3] [%] | effective dose, Rac1-mediated cellular functions [4] [µM] | IC50 ([5]; read-out: Soft agar assay IC50, Clone Number) [µM] | IC50 ([5]; read-out: Soft agar assay IC50, Clone Size) [µM] | effect on RhoA activation [6] | activity against PKC [7] [μm] | maximum inhibition on Rac1/Tiam1 ([1]; dose-response study (1-2-5-10-25-50-75-100 μM)) | IC50 ([5]; Homo sapiens, HCT-116, 168 h, read-out: Soft agar assay IC50, Clone Number) [µM] | IC50 ([5]; Homo sapiens, HCT-116, 168 h, read-out: Soft agar assay IC50, Clone Size) [µM] | inhibition at 50 µM [8] [%] | IC50 ([3]; dose-response study) [µM] | selectivity for Rac1b ([3]; versus Rac1 or Cdc42)
1 | 178.8 | Cl.Oc1cc2c(cc1O)CN(Cc1cccc(O)c1O)CC2 [Compound 19, 2-(2,3-Dihydroxybenzyl)-6,7-dihydroxy-1,2,3,4-tetrahydroisoquinolinium chloride] | 9 ± 2 | 17 ± 3 | 19 ± 3 | – | – | – | – | – | – | – | – | – | – | –
2 | – | CCN(CC)CCCC(C)Nc1nc(C)cc(Nc2ccc3nc(C)cc(N)c3c2)n1 (stereo not drawn) [NSC 23766, reference compound] | – | – | – | 50 to 100 | 64.2 ± 4.8 | 27.9 ± 5 | no effect | – | – | – | – | – | – | –
3 | – | COc1ccc2c(c[n+](C)c3c4cc5c(cc4ccc23)OCO5)c1OC.[Cl-] [Compound 14, 1,2-dimethoxy-N-methyl[1,3]benzodioxolo[5,6-c]phenanthridinium chloride, reference compound] | 25 ± 6 | 35 ± 10 | 100 | – | – | – | – | 1 | around 25% | 2.4 ± 0.2 | 2 ± 0.3 | 40 ± 10 | 6.7 ± 0.9 | highly selective for Rac1b; also recorded: some significant selectivity for Rac1b

Reference: patent publication US20100120810A1, “COMPOUNDS AND METHODS FOR MODULATING RHO GTPASES” (priority 2007, published 2010)
